{"source": "paper PMC1177995", "about": "(Virology Journal, 2005)", "key": {"DENV strain New Guinea-2": {"tested_on": "DENV strain New Guinea-2", "assay_type": "cell-based, dengue virus"}, "WNV strain Egypt 101": {"tested_on": "WNV strain Egypt 101", "assay_type": "cell-based, West Nile virus", "settings": "100 μg/ml, compared to the original peptide"}}, "note": "Where a SMILES comes first, the peptide text is derived from it.", "data": [{"compound": "CC[C@H](C)[C@H](NC(=O)[C@H](C)NC(=O)CNC(=O)[C@H](Cc1ccccc1)NC(=O)[C@@H](NC(=O)[C@H](CCC(N)=O)NC(=O)[C@H](Cc1c[nH]cn1)NC(=O)[C@H](CC(C)C)NC(=O)[C@H](C)NC(=O)[C@H](CCCCN)NC(=O)CNC(=O)[C@@H](NC(=O)[C@H](CO)NC(=O)[C@@H](NC(=O)[C@H](Cc1ccccc1)NC(=O)[C@@H](NC(=O)CNC(=O)CNC(=O)[C@H](CC(C)C)NC(=O)[C@H](CO)NC(=O)CNC(=O)[C@H](Cc1ccccc1)NC(=O)[C@H](CC(=O)O)NC(=O)[C@H](Cc1c[nH]c2ccccc12)NC(=O)[C@H](C)NC(=O)[C@@H](NC(=O)[C@H](CC(=O)O)NC(=O)CNC(=O)[C@H](CC(C)C)NC(=O)[C@@H](NC(=O)[C@H](C)NC(=O)[C@@H](N)CCSC)[C@@H](C)CC)[C@@H](C)O)C(C)C)[C@@H](C)O)[C@@H](C)CC)C(C)C)C(=O)N[C@@H](Cc1ccc(O)cc1)C(=O)O", "note": "[DN59] (H-MAILGDTAWDFGSLGGVFTSIGKALHQVFGAIY-OH)", "values": [{"measurement": "maximum inhibitory activity against DENV", "setting": "DENV strain New Guinea-2; at 20 μM, dose-response, mean +/- SD, triplicate", "value": "100.0 +/- 0.5%"}]}, {"compound": "VATWHLDWSREFPLFLMNS [Scrambled WN83]", "values": [{"measurement": "inhibitory effect of scrambled peptide against WNV", "setting": "WNV strain Egypt 101", "value": "no inhibitory activity"}]}, {"compound": "YFIDTSGAIWGASHLTGVLFDFMGIQGGAVLAK [Scrambled DN59]", "values": [{"measurement": "inhibitory effect of scrambled peptide against DENV", "setting": "DENV strain New Guinea-2; 100 μg/ml, compared to the original peptide", "value": "no inhibitory activity"}]}]}
